Experimental data: patent US20240376113A1 (Volastra Therapeutics, Inc., priority 2020, published 2024)
Where two headings read alike, the source gives them in different places.

Target: ENPP-1 ECD (Homo sapiens (Human), UniProt P22413)
Assay: Inhibition of ENPP1 hydrolysis of 2′,3′-cGAMP (Assay 1)
Details: AMP-Glo luminescence, KI from IC50 via Cheng/Prusoff
[1] = Assay 1 KI values (class), 2,3-cGAMP 24 μM
[2] = read-out: Assay 1 KI, 2,3-cGAMP 24 μM
[3] = read-out: Assay 1 KI values (class), 2,3-cGAMP 24 μM

Sequence of ENPP-1 ECD (P22413 98-925): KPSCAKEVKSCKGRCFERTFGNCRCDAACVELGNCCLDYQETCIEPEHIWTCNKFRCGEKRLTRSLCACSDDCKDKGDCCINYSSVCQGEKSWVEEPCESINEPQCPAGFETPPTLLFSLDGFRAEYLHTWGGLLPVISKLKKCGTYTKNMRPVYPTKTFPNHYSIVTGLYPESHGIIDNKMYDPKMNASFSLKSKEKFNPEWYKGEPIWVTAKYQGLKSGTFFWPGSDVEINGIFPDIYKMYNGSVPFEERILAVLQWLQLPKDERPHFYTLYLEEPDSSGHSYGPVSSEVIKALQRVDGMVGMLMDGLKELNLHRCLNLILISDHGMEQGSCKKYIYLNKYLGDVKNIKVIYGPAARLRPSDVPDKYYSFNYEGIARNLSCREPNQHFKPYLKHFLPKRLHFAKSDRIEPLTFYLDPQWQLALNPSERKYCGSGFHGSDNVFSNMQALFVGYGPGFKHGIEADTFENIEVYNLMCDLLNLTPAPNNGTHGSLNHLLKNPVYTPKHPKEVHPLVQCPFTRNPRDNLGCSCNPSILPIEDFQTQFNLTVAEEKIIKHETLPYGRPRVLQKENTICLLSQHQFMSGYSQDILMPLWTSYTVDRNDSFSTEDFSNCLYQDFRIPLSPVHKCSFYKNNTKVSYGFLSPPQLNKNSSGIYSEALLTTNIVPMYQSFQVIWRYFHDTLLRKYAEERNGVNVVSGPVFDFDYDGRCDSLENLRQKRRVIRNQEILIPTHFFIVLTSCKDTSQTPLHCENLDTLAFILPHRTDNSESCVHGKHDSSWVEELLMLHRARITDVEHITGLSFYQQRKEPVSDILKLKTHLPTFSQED
Protocol: Test compounds were plated in a 3× dilution scheme in a 384 well plate.

Molecule	Ki [1] [nM]	Ki [2] [nM]	Ki [3] [nM]	Ki (Assay 1 KI, 2,3-cGAMP 24 μM) [nM]
Cc1nc2ncnn2c(N2CC(F)(F)C2)c1Cc1ccc(S(C)(=N)=O)cc1 (stereo not shown) [Compound 41]	3 to 300	10.8	–	–
Cc1nc2ncnn2c(N2C3CCC2CC3)c1Cc1ccc(S(C)(=N)=O)cc1 (stereo not shown) [Compound 44, {4-[(7-{7-azabicyclo[2.2.1]heptan-7-yl}-5-methyl-[1,2,4]triazolo[1,5-a]pyrimidin-6-yl)methyl]phenyl}(imino)methyl-λ^6-sulfanone]	3 to 300	–	–	–
Cc1nc2ncnn2c(C2CC2)c1Cc1ccc(S(C)(=N)=O)cc1 (stereo not shown) [Compound 71, [4-({7-cyclopropyl-5-methyl-[1,2,4]triazolo[1,5-a]pyrimidin-6-yl}methyl)phenyl](imino)methyl-λ6-sulfanone]	3 to 300	–	–	–
Cc1nc2ncnn2c(C)c1Cc1ccc(S(C)(=N)=O)cc1 (stereo not shown) [Compound 26, [4-({5,7-dimethyl-[1,2,4]triazolo[1,5-a]pyrimidin-6-yl}methyl)phenyl](imino)methyl-λ6-sulfanone]	3 to 300	13.6	–	–
Cc1nc2ncnn2c(N(C)C)c1-c1ccc(CCS(C)(=N)=O)cc1 (stereo not shown) [Compound 68, (2-{4-[7-(dimethylamino)-5-methyl-[1,2,4]triazolo[1,5-a]pyrimidin-6-yl]phenyl}ethyl)(imino)methyl-λ^6-sulfanone]	3 to 300	–	–	–
Cc1nc2ncnn2c(-n2cccn2)c1Cc1ccc(S(C)(=N)=O)cc1 (stereo not shown) [Compound 18, imino(methyl)(4-((5-methyl-7-(1H-pyrazol-1-yl)-[1,2,4]triazolo[1,5-a]pyrimidin-6-yl)methyl)phenyl)-λ^6-sulfanone]	3 to 300	6.99	–	–
Cc1nc2ncnn2c(N(C)C)c1-c1ccc2c(c1)CN(S(N)(=O)=O)CC2 [Compound 69, 7-[7-(dimethylamino)-5-methyl-[1,2,4]triazolo[1,5-a]pyrimidin-6-yl]-1,2,3,4-tetrahydroisoquinoline-2-sulfonamide]	3 to 300	122	–	–
3-[(4-{[7-(dimethylamino)-5-methyl-[1,2,4]triazolo[1,5-a]pyrimidin-6-yl]methyl}phenyl)(imino)oxo-λ^6-sulfanyl]propaneitrile [Compound 61]	–	0.375	< 3	–
Cc1nc2ncnn2c(N(C)C)c1Cc1cccc(NS(N)(=O)=O)c1 [Compound 3, N-(3-{[7-(dimethylamino)-5-methyl-[1,2,4]triazolo[1,5-a]pyrimidin-6-yl]methyl}phenyl)aminosulfonamide]	3 to 300	–	–	222
Cc1nc2nccn2c(N(C)C)c1Cc1ccc([S@@](C)(=N)=O)cc1 [Compound 29b]	–	42.2	3 to 300	–
Cc1nc2ncnn2c(N(C)C)c1CC1CCN(S(N)(=O)=O)CC1 [Compound 15, 4-{[7-(dimethylamino)-5-methyl-[1,2,4]triazolo[1,5-a]pyrimidin-6-yl]methyl}piperidine-1-sulfonamide]	3 to 300	495	–	–
Cc1nc2ncnn2c(N(C)C)c1Cc1ccc([S@](C)(=N)=O)cc1 (single isomer, unassigned) [Compound 49b]	–	0.356	< 3	–
CN(C)c1c(Cc2ccc([S@](C)(=N)=O)cc2)c(Cl)nc2ncnn12 [Compound 74b]	–	9.97	3 to 300	–
Cc1nc2ncnn2c(N(C)C)c1-c1ccc2c(c1)CCN(S(N)(=O)=O)C2 [Compound 84, 6-[7-(dimethylamino)-5-methyl-[1,2,4]triazolo[1,5-a]pyrimidin-6-yl]-1,2,3,4-tetrahydroisoquinoline-2-sulfonamide]	> 300	672	–	–
CN(C)c1c(Cc2ccc(S(C)(=N)=O)cc2)c(C(F)(F)F)nc2ncnn12 (stereo not shown) [Compound 51]	3 to 300	5.56	–	–
Cc1nc2ncnn2c(N(C)C2CC2)c1Cc1ccc(S(C)(=N)=O)cc1 (stereo not shown) [Compound 39, [4-({7-[cyclopropyl(methyl)amino]-5-methyl-[1,2,4]triazolo[1,5-a]pyrimidin-6-yl}methyl)phenyl](imino)methyl-λ^6-sulfanone]	3 to 300	–	–	–
Cc1nc2ncnn2c(N(C)C)c1Cc1ccc(S(=N)(=O)C2CC2)cc1 (stereo not shown) [Compound 63, [cyclopropyl(4-{[7-(dimethylamino)-5-methyl-[1,2,4]triazolo[1,5-a]pyrimidin-6-yl]methyl}phenyl)imino-λ^6-sulfanyl]one]	< 3	0.0363	–	–
Cc1nc2nccn2c(N2CCCCC2)c1Cc1ccc(S(C)(=N)=O)cc1 (stereo not shown) [Compound 83, Imino(methyl)(4-{[7-methyl-5-(piperidin-1-yl)imidazo[1,2-a]pyrimidin-6-yl]methyl}phenyl)-λ^6-sulfanone]	< 3	0.0978	–	–
CS(=N)(=O)Cc1ccc(-c2cnc3ncnn3c2)cc1 (stereo not shown) [Compound 66, imino(methyl)[(4-{[1,2,4]triazolo[1,5-a]pyrimidin-6-yl}phenyl)methyl]-λ^6-sulfanone]	> 300	> 1500	–	–
Cc1nc2ncnn2c(N2CC3CC3C2)c1Cc1ccc(S(C)(=N)=O)cc1 (stereo not shown) [Compound 48, {4-[(7-{3-azabicyclo[3.1.0]heptan-3-yl}-5-methyl-[1,2,4]triazolo[1,5-a]pyrimidin-6-yl)methyl]phenyl}(imino)methyl-λ^6-sulfanone]	< 3	2.65	–	–

Molecule	Ki [1] [nM]	Ki [2] [nM]	Ki [3] [nM]	Ki (Assay 1 KI, 2,3-cGAMP 24 μM) [nM]
Cc1nc2ncnn2c(N(C)C)c1Cc1ccc([S@](=N)(=O)CCC(=O)O)cc1 [Compound 72b]	–	0.982	–	–
COc1nc2ncnn2c(N(C)C)c1Cc1ccc([S@](C)(=N)=O)cc1 [Compound 88b]	–	> 15	–	–
Cc1nc2ncnn2c(N2CCCC2)c1Cc1ccc([S@@](C)(=N)=O)cc1 (single isomer, unassigned) [Compound 8b]	–	13.4	3 to 300	–
Cc1nc2ncnn2c(N2CC3CC2C3)c1Cc1ccc(S(C)(=N)=O)cc1 (stereo not shown) [Compound 45, {4-[(7-{2-azabicyclo[2.1.1]heptan-2-yl}-5-methyl-[1,2,4]triazolo[1,5-a]pyrimidin-6-yl)methyl]phenyl}(imino)methyl-λ^6-sulfanone]	3 to 300	9.83	–	–
Cc1nc2ncnn2c(N2CC(C)(C)C2)c1Cc1ccc(S(C)(=N)=O)cc1 (stereo not shown) [Compound 42, (4-{[7-(3,3-dimethylazetidin-1-yl)-5-methyl-[1,2,4]triazolo[1,5-a]pyrimidin-6-yl]methyl}phenyl)(imino)methyl-λ^6-sulfanone]	3 to 300	–	–	–
Cc1c(Cc2ccc([S@](C)(=N)=O)cc2)c(N(C)C)n2ncnc2c1C#N (single isomer, unassigned) [Compound 85b]	–	11.1	–	–
Cc1nc2ncnn2c(N2CCC(F)(F)CC2)c1Cc1ccc(S(C)(=N)=O)cc1 (stereo not shown) [Compound 43, (4-{[7-(4,4-difluoropiperidin-1-yl)-5-methyl-[1,2,4]triazolo[1,5-a]pyrimidin-6-yl]methyl}phenyl)(imino)methyl-λ^6-sulfanone]	3 to 300	–	–	–
Cc1c(Cc2ccc([S@](C)(=N)=O)cc2)c(N(C)C)n2ccnc2c1C#N [Compound 80b]	–	43	3 to 300	–
Cc1nc2ncnn2c(N2CC3CC(C3)C2)c1Cc1ccc(S(C)(=N)=O)cc1 (stereo not shown) [Compound 46, {4-[(7-{3-azabicyclo[3.1.1]heptan-3-yl}-5-methyl-[1,2,4]triazolo[1,5-a]pyrimidin-6-yl)methyl]phenyl}(imino)methyl-λ^6-sulfanone]	3 to 300	–	–	–
Cc1nc2ncnn2c(N(C)C)c1Cc1cccc(S(C)(=N)=O)c1 (stereo not shown) [Compound 4, (3-((7-(dimethylamino)-5-methyl-[1,2,4]triazolo[1,5-a]pyrimidin-6-yl)methyl)phenyl)(imino)(methyl)-λ^6-sulfanone]	> 300	537	–	–
Cc1nc2ncnn2c(N2C3CCCC2CC3)c1Cc1ccc(S(C)(=N)=O)cc1 (stereo not shown) [Compound 47]	3 to 300	50.9	–	–
Cc1nc2ncnn2c(N(C)C)c1Cc1cccc(S(N)(=O)=O)c1 [Compound 65, 3-{[7-(dimethylamino)-5-methyl-[1,2,4]triazolo[1,5-a]pyrimidin-6-yl]methyl}benzene-1-sulfonamide]	3 to 300	181	–	–
Cc1nc2ncnn2c(N(C)C2CCC2)c1Cc1ccc(S(C)(=N)=O)cc1 (stereo not shown) [Compound 40]	3 to 300	27	–	–
Cc1nc2ncnn2c(N2CCCCC2)c1Cc1ccc([S@@](C)(=N)=O)cc1 [Compound 16b]	–	3.17	3 to 300	–
CS(=N)(=O)c1ccc(Cc2c(C(F)(F)F)nc3ncnn3c2N2CCCCC2)cc1 (stereo not shown) [Compound 52]	3 to 300	4.85	–	–
Cc1cc2ncnn2c(N(C)C)c1Cc1ccc([S@@](C)(=N)=O)cc1 (single isomer, unassigned) [Compound 28b]	–	10	3 to 300	–
Cc1nc2ncnn2c(N(C)C)c1Cc1ccc([S@](C)(=N)=O)cc1 (single isomer, unassigned) [Compound 1a]	–	13.4	3 to 300	–
CCN(CC)c1c(Cc2ccc(S(C)(=N)=O)cc2)c(C)nc2ncnn12 (stereo not shown) [Compound 38]	3 to 300	37.9	–	–
Cc1nc2ncnn2cc1Cc1ccc(S(C)(=N)=O)cc1 (stereo not shown) [Compound 70, imino(methyl)[4-({5-methyl-[1,2,4]triazolo[1,5-a]pyrimidin-6-yl}methyl)phenyl]-λ6-sulfanone]	3 to 300	179	–	–
Cc1nc2ncnn2c(N(C)C)c1Cc1ccc(S(=N)(=O)C2COC2)cc1 (stereo not shown) [Compound 62, [(4-{[7-(dimethylamino)-5-methyl-[1,2,4]triazolo[1,5-a]pyrimidin-6-yl]methyl}phenyl)(oxetan-3-yl)imino-λ^6-sulfanyl]one]	< 3	0.19	–	–
